Source: US10765114B2, “4-amino-6-(pyridyl and 2-substitutedphenyl)-picolinates and 6-amino-2-(pyridyl and 2-substitutedphenyl)-pyrimidine-4-carboxylates and their use as herbicides” (Dow AgroSciences LLC, priority 2013, dated 2020)
Where two headings read alike, the source gives them in different places.

Experiments:
[1] = system: Key Broadleaf Weed and Crop Species; assay: Post-Emergent Test II (Table 5); format: in vivo; settings: post-emergence, 336 h; for pest or weed control at 70 g/ha: application rate 70 (kg ai/ha; footnote: g ai/ha); for pest or weed control at 140 g/ha: application rate 140 (kg ai/ha; footnote: g ai/ha)
Method in brief: (§1)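 Visual injury ratings (0 = no injury, 100 = complete kill) were taken 14 days after treatment relative to untreated plants. Seedlings at the first or second true leaf stage received an overhead spray at 187 L/ha, and solvent-blank sprayed plants served as controls.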

[2] = system: Key Grass and Sedge Weeds as well as Grass Crops; assay: Post-Emergent Test II (Table 6); format: in vivo; settings: post-emergence, 336 h, 14 days after application; for pest or weed control at 70 g/ha: 70 g ai/ha; for pest or weed control at 140 g/ha: 140 g ai/ha
Method in brief: as §1

[3] = Abutilon theophrasti, ABUTH: velvetleaf (Abutilon theophrasti), read-out: Visual Growth Reduction (%) 14 Days After Application ABUTH
[4] = Amaranthus retroflexus, AMARE: redroot pigweed (Amaranthus retroflexus), read-out: Visual Growth Reduction (%) 14 Days After Application AMARE
[5] = Brassica napus, BRSSS: oilseed rape, canola (Brassica napus), read-out: Visual Growth Reduction (%) 14 Days After Application BRSSS
[6] = Chenopodium album, CHEAL: lambsquarters (Chenopodium album), read-out: Visual Growth Reduction (%) 14 Days After Application CHEAL
[7] = Euphorbia heterophylla, EPHHL: wild poinsettia (Euphorbia heterophylla), read-out: Visual Growth Reduction (%) 14 Days After Application EPHHL
[8] = Helianthus annuus, HELAN: sunflower (Helianthus annuus), read-out: Visual Growth Reduction (%) 14 Days After Application HELAN
[9] = Viola tricolor, VIOTR: wild pansy (Viola tricolor), read-out: Visual Growth Reduction (%) 14 Days After Application VIOTR
[10] = CYPSS, read-out: Visual Growth Reduction (%) 14 Days After Application CYPSS
[11] = DIGSA: crabgrass (Digitaria sanguinalis), read-out: Visual Growth Reduction (%) 14 Days After Application DIGSA
[12] = ECHSS, read-out: Visual Growth Reduction (%) 14 Days After Application ECHSS
[13] = ORYSS (crop), read-out: Visual Growth Reduction (%) 14 Days After Application ORYSS
[14] = SETFA: giant foxtail (Setaria faberi), read-out: Visual Growth Reduction (%) 14 Days After Application SETFA
[15] = SORVU: grain sorghum (Sorghum vulgare), read-out: Visual Growth Reduction (%) 14 Days After Application SORVU
[16] = TRZSS (crop), read-out: Visual Growth Reduction (%) 14 Days After Application TRZSS
[17] = ZEAMX: maize, corn (Zea mays), read-out: Visual Growth Reduction (%) 14 Days After Application ZEAMX

Structure (SMILES) | melting point [°C] | pest or weed control at 70 g/ha [1, 3] [%] | pest or weed control at 140 g/ha [1, 3] [%] | pest or weed control at 70 g/ha [1, 4] [%] | pest or weed control at 140 g/ha [1, 4] [%] | pest or weed control at 70 g/ha [1, 5] [%] | pest or weed control at 140 g/ha [1, 5] [%] | pest or weed control at 70 g/ha [1, 6] [%] | pest or weed control at 140 g/ha [1, 6] [%] | pest or weed control at 70 g/ha [1, 7] [%] | pest or weed control at 140 g/ha [1, 7] [%] | pest or weed control at 70 g/ha [1, 8] [%] | pest or weed control at 140 g/ha [1, 8] [%] | pest or weed control at 70 g/ha [1, 9] [%] | pest or weed control at 140 g/ha [1, 9] [%] | pest or weed control at 70 g/ha [2, 10] [%] | pest or weed control at 140 g/ha [2, 10] [%] | pest or weed control at 70 g/ha [2, 11] [%] | pest or weed control at 140 g/ha [2, 11] [%] | pest or weed control at 70 g/ha [2, 12] [%] | other results
COC(=O)c1nc(-c2ccc(F)c(F)c2C)cc(N)c1Cl [Compound 69] | 120 to 126 | 95 to 100 | 95 to 100 | 95 to 100 | 95 to 100 | 85 to 94 | 95 to 100 | 95 to 100 | 95 to 100 | 0 to 29 | 0 to 29 | 85 to 94 | 85 to 94 | 0 to 29 | 0 to 29 | 45 to 59 | 95 to 100 | 0 to 29 | 0 to 29 | 0 to 29 | pest or weed control at 140 g/ha [2, 12]: 0 to 29%; pest or weed control at 70 g/ha [2, 13]: 0 to 29%; pest or weed control at 140 g/ha [2, 13]: 0 to 29%; pest or weed control at 70 g/ha [2, 14]: 0 to 29%; pest or weed control at 140 g/ha [2, 14]: 0 to 29%; pest or weed control at 70 g/ha [2, 15]: 0 to 29%; pest or weed control at 140 g/ha [2, 15]: 0 to 29%; pest or weed control at 70 g/ha [2, 16]: 0 to 29%; pest or weed control at 140 g/ha [2, 16]: 0 to 29%; pest or weed control at 70 g/ha [2, 17]: 0 to 29%; pest or weed control at 140 g/ha [2, 17]: 0 to 29%
COC(=O)c1nc(-c2ccc(C(F)(F)F)nc2C)c(F)c(N)c1Cl [Compound 35] | 160 | 0 to 29 | 0 to 29 | 0 to 29 | 0 to 29 | 0 to 29 | 0 to 29 | 0 to 29 | 0 to 29 | 0 to 29 | 0 to 29 | 0 to 29 | 0 to 29 | 0 to 29 | 0 to 29 | 0 to 29 | 0 to 29 | 0 to 29 | 0 to 29 | 0 to 29 | pest or weed control at 140 g/ha [2, 12]: 0 to 29%; pest or weed control at 70 g/ha [2, 13]: 0 to 29%; pest or weed control at 140 g/ha [2, 13]: 0 to 29%; pest or weed control at 70 g/ha [2, 14]: 0 to 29%; pest or weed control at 140 g/ha [2, 14]: 0 to 29%; pest or weed control at 70 g/ha [2, 15]: 0 to 29%; pest or weed control at 140 g/ha [2, 15]: 0 to 29%; pest or weed control at 70 g/ha [2, 16]: 0 to 29%; pest or weed control at 140 g/ha [2, 16]: 0 to 29%; pest or weed control at 70 g/ha [2, 17]: 0 to 29%; pest or weed control at 140 g/ha [2, 17]: 0 to 29%
COc1nc(Cl)ccc1-c1cc(N)c(Cl)c(C(=O)O)n1 [Compound 57] | 170 to 171 | 85 to 94 | 85 to 94 | 95 to 100 | 95 to 100 | 75 to 84 | 75 to 84 | 85 to 94 | 85 to 94 | 0 to 29 | 0 to 29 | 85 to 94 | 85 to 94 | 0 to 29 | 0 to 29 | 0 to 29 | 0 to 29 | 0 to 29 | 0 to 29 | 0 to 29 | pest or weed control at 140 g/ha [2, 12]: 0 to 29%; pest or weed control at 70 g/ha [2, 13]: 0 to 29%; pest or weed control at 140 g/ha [2, 13]: 0 to 29%; pest or weed control at 70 g/ha [2, 14]: 0 to 29%; pest or weed control at 140 g/ha [2, 14]: 0 to 29%; pest or weed control at 70 g/ha [2, 15]: 0 to 29%; pest or weed control at 140 g/ha [2, 15]: 0 to 29%; pest or weed control at 70 g/ha [2, 16]: 0 to 29%; pest or weed control at 140 g/ha [2, 16]: 0 to 29%; pest or weed control at 70 g/ha [2, 17]: 0 to 29%; pest or weed control at 140 g/ha [2, 17]: 0 to 29%
